In paper PMC7249060, “The Antiproliferative Effects of Flavonoid MAO Inhibitors on Prostate Cancer Cells” (Molecules, 2020):

Key:
[1] = test system: LNCaP cells; experiment: Viability screen assay, resazurin, 24 h; assay type: cell-based, human; conditions: 50 μM, 90% viability as margin of cytotoxicity
Protocol: We examined the cytotoxic effects of all 20 synthesized KKRs on the three human PCa cell lines LNCaP, DU145, and PC3, after a 24 h exposure period. Non-toxic TAX was used for comparison. Briefly, cultured cells were seeded in black transparent bottom 96-well microplates at 50,000 cells/175-µL/well in experimental media (RPMI1640 for LNCaP, EMEM for DU145, and DMEM/F12K for PC3), supplied with 5% FBS and 1% P/S. Wells of media without cells were considered blanks and negative controls. The plates were incubated overnight at 37 °C in 5% CO2 to allow cell attachment. For each compound, a working solution of 8X KKR in sterile […] HEPES in HBSS pH buffer of 7.4 was prepared for a final concentration of 50 μM each. The three attached cell types were treated immediately with the related buffer being added to the control wells. A sterile fluorescence-based solution of the resazurin reagent of 0.5 mg/mL in HBSS was prepared. After 24 h, the cells were exposed to 15% v/v of the sterile resazurin reagent, and the plates were re-incubated for 4.5 h to allow redox reaction. All plates were read under 530/590-nm excitation/emission wavelengths using Bio-Tek Synergy HTX Multi-reader as a microplate fluorescence reader.

[2] = test system: LNCaP cells; experiment: Antiproliferation screen assay, resazurin, 72 h; assay type: cell-based, human; conditions: 50 μM
Protocol: In this screen, we examined the growth inhibitory effects of all synthesized KKRs on the three human PCa cell lines LNCaP, DU145, and PC3. The antiproliferative clinical drug TAX of 0.25 μM was used as a positive control. Additionally, different standards of MAO-Is and FLUT were tested for their effect on the LNCaP cells. Briefly, the procedures and materials used were the same as for the viability assay except for the following—cultured cells were seeded at 10,000 cells/175-µL/well related experimental media, and the resazurin solution was added after 72 h of incubation with the compounds of 50 μM each.

[3] = test system: LNCaP cells; experiment: Antiproliferation screen assay, resazurin, 72 h; assay type: cell-based, human
[4] = biological target: T1, hMAO-A (Homo sapiens, UniProt P21397); experiment: MAO-Glow inhibitory potency (IC50) and relative selectivity; assay type: biochemical; conditions: mean ± SEM, at least two experiments; LDS 40 μM
T1 construct: purchased Sigma-Aldrich Co. (St. Louis, MO, USA)
T1 sequence (P21397 1-527): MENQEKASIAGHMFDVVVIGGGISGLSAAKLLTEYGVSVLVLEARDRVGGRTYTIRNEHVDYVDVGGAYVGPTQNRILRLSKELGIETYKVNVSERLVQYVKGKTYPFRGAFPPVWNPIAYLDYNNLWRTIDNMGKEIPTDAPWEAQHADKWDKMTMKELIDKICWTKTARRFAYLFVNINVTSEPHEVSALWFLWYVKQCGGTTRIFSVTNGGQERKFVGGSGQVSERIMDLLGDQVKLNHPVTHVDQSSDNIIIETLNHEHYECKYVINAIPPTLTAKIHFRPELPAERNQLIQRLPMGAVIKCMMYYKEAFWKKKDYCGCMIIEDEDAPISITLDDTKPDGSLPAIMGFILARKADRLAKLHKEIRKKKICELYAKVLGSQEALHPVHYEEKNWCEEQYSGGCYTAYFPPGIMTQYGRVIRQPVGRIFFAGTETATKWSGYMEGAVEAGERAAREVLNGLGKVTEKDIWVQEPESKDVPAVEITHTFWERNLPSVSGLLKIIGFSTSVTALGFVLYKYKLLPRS
Protocol: (§1) The inhibitory effects of the synthesized KKRs of hMAO-A and B were tested by measuring the decrease in arbitrary light units (ALU) signal produced by the optimized isozymes using the MAO-Glow™ Assay at 37 °C. In this assay, DMSO stock for each KKR compound was diluted with a reaction buffer of pH 7.4 to make a 4X working solution for a maximum final concentration of 100 μM and ≤1% DMSO. The experiments were run in the absence and presence of 4X the miscellaneous standards of MAO-BIs (DEP, PARG, and SAF) and MAO-AIs (PIRL and CLORG), with similar concentrations. In white opaque 96-well microplates, 12.5 μL of each compound was plated at RT and was followed by 25 μL of 2X cold hMAO-A or hMAO-B, for a final concentration of 0.44 U/mL. A related buffer substituted each isozyme to make the blank wells and substituted each compound to make the negative control wells. Following this, we added 12.5 μL of 4X LDS to make a final substrate concentration of 40- and 4-μM for hMAO-A and hMAO-B, respectively. All screen plates were incubated at 37 °C for 60 min. The plates of 50 μL/well were then taken out from the incubator, and their reactions were stopped by an equal volume of 50 μL of reporter luciferin detection reagent (RLDR). After 30 min, the luminescence signals for all plates were read on a Synergy HTX Multi-reader from Bio-Tek (Winooski, VT, USA).
(§2) The experiments were performed in the presence and absence of the standard PILR. In white opaque 96-well plates, each KKR compound was serially diluted with a reaction buffer of pH 7.4 at the highest possible maximum final concentration, and the least used DMSO (<2%). In blank wells, the related reaction buffer substituted the isozyme. In negative control wells, the reaction buffer substituted each compound concentration. Then, the procedure was carried out as mentioned above (Section 4.2.2), and the reaction was detected on the Bio-Tek Synergy HTX Multi-Reader. The IC50 of each KKR on both isozymes was determined and subsequently the RSA and RSB was calculated.
(§3) Statistical analyses were performed using the GraphPad Prism program (version 6.07 for Windows) from the GraphPad Prism Software Incorporated (San Diego, CA, USA). All data points and parameters were expressed as the mean ± SEM. All parameters were calculated from non-linear and linear regressions with the best R^2 values, no less than 93%. The inhibitory concentration of 50% of isozyme (IC50) of each compound was obtained by the interpolation of a normalized variable slope logarithmic curve. The RSA values of the selected compounds were calculated from their IC50 average means following the equation RSA = hMAO − B IC50/Hmao − A IC50(1)

[5] = biological target: T2, hMAO-B (Homo sapiens, UniProt P27338); experiment: MAO-Glow inhibitory potency (IC50); assay type: biochemical; conditions: mean ± SEM, at least two experiments; LDS 4 μM
T2 construct: purchased Sigma-Aldrich Co. (St. Louis, MO, USA)
T2 sequence (P27338 1-520): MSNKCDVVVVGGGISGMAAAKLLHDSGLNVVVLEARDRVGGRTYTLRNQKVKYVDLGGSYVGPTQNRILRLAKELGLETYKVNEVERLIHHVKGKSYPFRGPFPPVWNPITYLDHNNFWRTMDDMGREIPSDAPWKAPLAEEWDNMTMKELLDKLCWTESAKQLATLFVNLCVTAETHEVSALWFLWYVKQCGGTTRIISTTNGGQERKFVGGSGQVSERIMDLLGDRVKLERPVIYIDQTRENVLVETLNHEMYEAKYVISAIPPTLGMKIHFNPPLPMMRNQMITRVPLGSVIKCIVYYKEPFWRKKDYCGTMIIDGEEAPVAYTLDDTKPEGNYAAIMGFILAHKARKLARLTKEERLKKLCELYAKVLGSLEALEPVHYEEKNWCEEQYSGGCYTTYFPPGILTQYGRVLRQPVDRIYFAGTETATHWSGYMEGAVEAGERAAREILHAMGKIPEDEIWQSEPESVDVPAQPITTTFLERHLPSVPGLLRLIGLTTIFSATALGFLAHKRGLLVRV
Protocol: as §1, §2, §3

[6] = test system: LNCaP cells; experiment: Antiproliferation dose-response assay for 72 h; assay type: cell-based; conditions: Homo sapiens, mean ± SEM of two experiments, read-out: antiproliferative IC50
Protocol: For the top effective KKRs, along with TAX, their potency to reduce the affected PCa cell line growth in a dose-dependent manner was determined using the resazurin fluorescence assay. We followed the same protocols and materials used for the antiproliferation screen assays (Section 4.3.2), with the following modifications. The maximum final KKR concentration used was 40 μM. The concentration of 8X of each KKR working solution in 1% HEPES 7.4 was serially diluted in a 3:1 ratio, compound to buffer, respectively. Each data set was collected from ten data points of 3.7–40 μM range. The control had the KKR substituted with buffer. The related IC50 averages were analyzed for the compounds that affected the cell lines the most.

[7] = test system: LNCaP cells; experiment: cells; assay type: cell-based, human
Protocol: The morphological alterations of the LNCaP cells were imaged, and their percentage proliferation rate was measured after five-days of incubation. The method of subculture and treatment were similar to our antiproliferation assay, with slight modifications. Briefly, the cells were seeded in transparent flat-bottom 96-well microplates with 10,000 cells/175 μL/well of […] experimental media. Following overnight incubation, 20 μM concentration level (~2 × IC50) for each of KKR11, 20, 7, 2A, 21, and the standard PIRL were added to the cells for a total volume of 200 μL/well and re-incubated for five-days. On the day of imaging, 20X phase-contrast images of lid-covered treated and control cells were captured using an inverted microscope. Resazurin was then added for viability detection, and the imaged cells in the wells were read after 4.5 h on the Bio-Tek Synergy HTX Multi-reader.

[8] = test system: DU145 cells; experiment: Scratch migration assay; assay type: cell-based, human; conditions: preliminary data
Protocol: For in-vitro migration experiments, the PCa metastatic DU145 cell line was used. Cell proliferation and cytotoxicity were monitored for assay validation. The cells (passage # ≤ 10) were grown in fresh media of EMEM 10% FBS, 1% P/S. The cells were seeded in flat-bottom transparent 96-well microplates (100,000 cells/100 μL/well) in EMEM 5% FBS, 1% P/S experimental media. The next day, the confluent cells monolayer was artificially injured by scratching a line across each well, using a 200 μL tip. Immediately, the old media with the detached cells were replaced with 175 μL fresh warm experimental media. Intact cells were then treated with 25 μL of HBSS buffer 7.4 containing tested KKR. In addition to the negative control, KKR11 was tested at gradual concentrations to make finals of 40, 30, 23, 17, and 13 μM. The cells were then incubated for an additional 72 h for gap closure of the control wells.
At the gap closure time point, all cells were subjected to the crystal violet assay that only stains viable cells. Briefly, all media were carefully aspired from cells that were then washed with Ca- and Mg-free PBS. The cells were then fixed with 100 μL 0.25% v/v glutaraldehyde, at 37 °C for 20–30 min incubation time, and dried overnight. The next day, all viable attached cells were stained with a 100 μL crystal violet solution (0.1% in DI-water) for up to 30 min. The solution was then discarded, and the stained cells were kept dry for imaging. Images of the scratched areas were photographed using 10X phase contrast objective lenses of Motic-MXH-100-AE31E-Elite Inverted Microscope.

COc1cc(OC)c2c(=O)c(O)c(/C=C/c3ccccc3)oc2c1 [KKR16, (E)-3-hydroxy-5,7-dimethoxy-2-styryl-4H-chromen-4-one]
cytotoxicity / cell viability [1]: affected the LNCaP cells

O=C(/C=C/c1ccc2c(c1)OCO2)c1cc(Cl)cc(Cl)c1O [KKR18, (E)-3-(benzo[d][1,3]dioxol-5-yl)-1-(3,5-dichloro-2-hydroxyphenyl)prop-2-en-1-one]
antiproliferative effect in screen [2]: top five KKRs that kept standing out with antiproliferative effects

COc1cc(-c2cc(=O)c3ccccc3o2)cc(OC)c1OC [KKR22, 2-(3,4,5-trimethoxyphenyl)-4H-chromen-4-one]
cytotoxicity / cell viability [1]: affected the LNCaP cells

CC(C)C(=O)Nc1ccc([N+](=O)[O-])c(C(F)(F)F)c1 [FLUT, flutamide]
antiproliferative effect of clinical standards ([3]; 10 μM): none of the standards showed a significant antiproliferative effect

C#CCN(C)[C@H](C)Cc1ccccc1.Cl [DEP, (R)-(−)-deprenyl HCl]
antiproliferative effect of clinical standards ([3]; 10 μM): none of the standards showed a significant antiproliferative effect

O=C(/C=C/c1ccccc1)c1cc(Cl)c(Cl)cc1O [KKR23, (E)-1-(4,5-dichloro-2-hydroxyphenyl)-3-phenylprop-2-en-1-one]
antiproliferative effect in screen [2]: top five KKRs that kept standing out with antiproliferative effects

Cc1ccc2c(c1)c1c3n2CCNC3CCC1 (stereo not drawn) [PIRL, pirlindole, reference compound]
IC50 [4]: 12 ± 2 nM | IC50 [5]: > 800000 nM | IC50 [6]: > 40000 nM | effect on LNCaP proliferation and cell morphology ([7]; 20 μM, five days, phase contrast): neither significant effects on LNCaP proliferation nor apparent changes in cell morphology | viability at 20 µM ([7]; Homo sapiens, LNCaP, 120 h, read-out: percentage of treated group compared to the viable control): 90% | antiproliferative effect of clinical standards ([3]; 10 μM): none of the standards showed a significant antiproliferative effect

CC(=O)O[C@H]1C(=O)[C@@]2(C)[C@H]([C@H](OC(=O)c3ccccc3)[C@]3(O)C[C@H](OC(=O)[C@H](O)[C@@H](NC(=O)c4ccccc4)c4ccccc4)C(C)=C1C3(C)C)[C@]1(OC(C)=O)CO[C@@H]1C[C@@H]2O [TAX, paclitaxel, reference compound]
IC50 [6]: 210 nM | effect on cell migration [8]: delayed cell migration | antiproliferative effect of clinical standards ([3]; 0.5 μM): highly effective
